# Where two headings read alike, the source gives them in different places.
# Columns and labels:
# human osteoclasts = assay: Osteoclast activity assay (resorption index CTX/TRACP 5b); assay type: cell-based
# Experimental: In the second part, the culture medium of human osteoclasts was replaced by new medium at day 7, and the formed mature osteoclasts were cultured for an additional 3 days, allowing them to resorb bone. Compound 1 was added into the culture medium at day 7. […] C-terminal cross-linked telopeptides of type I collagen (CTX) were measured in the culture medium collected at day 10 to quantitate bone resorption during days 7-10. […] was measured at day 7 to quantitate osteoclast number before Compound 1 was added. The CTX values were divided by the […] values, resulting as a resorption index that indicates mean osteoclast activity. […] The objective of this study was to investigate the effects of Compound 1 selected by the Sponsor on differentiation and activity of human osteoclasts and mouse osteoblasts in vitro. The effects on osteoclasts were studied using a model where bone marrow-derived human osteoclast precursor cells are cultured on bovine bone slices for 7 days in conditions favouring osteoclast differentiation, and allowed to differentiate into bone-resorbing osteoclasts. After completion of osteoclast differentiation at day 7, the culture medium was removed and new culture medium favouring osteoclast activity was added into the wells. The mature osteoclasts were then cultured for an additional 3 days, allowing them to resorb bone. In the osteoclast differentiation assay, the test compounds and a reference inhibitor osteoprotegerin (OPG) were added into cultures at day 0. In the osteoclast activity assay, the test compounds and a reference inhibitor E64 were added into cultures at day 7. Seven concentrations in 8 replicates were tested in both assays. Tartrate-resistant acid phosphatase 5b activity ([…]) was measured from the culture medium collected at day 7 as an index of the number of osteoclasts formed in each well during the differentiation period. C-terminal cross-linked telopeptides of type I collagen (CTX) was measured from the culture medium collected at day 10 to quantitate bone resorption during days 7-10. A human osteoclast culture system was developed for use in this study where CD34+ osteoclast precursor cells derived from human bone marrow (Poietics® Human Osteoclast Precursors, Lonza, Walkersville, USA) are cultured on bovine bone slices in the presence of appropriate growth factors, including M-CSF and RANK-ligand ([…] et al. 2009). The cells are first allowed to differentiate into mature bone-resorbing osteoclasts, and the formed osteoclasts are then allowed to resorb bone. The test and reference compounds are added into the cell cultures at the beginning of the differentiation and/or the resorption period, and their effects on the differentiation and/or resorbing activity of osteoclasts are determined. Secreted […] is determined from the culture medium after the differentiation period using a commercially available method (BoneTRAPÒ, IDS Ltd, Boldon, UK). Secreted […] describes accurately the number of osteoclasts formed in each well during the differentiation period. CTX is determined from the culture medium after the resorption period using a commercially available method (CrossLapsÒ for cultures, IDS Ltd, Boldon, UK). CTX describes accurately the amount of bone collagen degradation products released into the culture medium in each well during the resorption period. […] In this study, human bone marrow-derived CD34+ stem cells (10000 cells/well) were suspended in culture medium and allowed to attach to bovine bone slices in 96-well tissue culture plates. The culture medium (containing 10% FBS, OCP BulletKit® Lonza, Walkersville, USA) was supplemented with appropriate amounts of important growth factors favoring osteoclast differentiation and activity, including M-CSF (33 ng/ml, OCP BulletKit® Lonza, Walkersville, USA) and RANK-ligand (66 ng/ml, OCP BulletKit® Lonza, Walkersville, USA) in 200 μl of medium. The cells were incubated in a CO2 incubator in humidified atmosphere of 95% air and 5% carbon dioxide at 37° C. […]
# [1] = test system: KS483 mouse osteoprogenitor cells; assay: Osteoblast activity assay (PINP at day 11, calcium deposition at day 13); assay type: cell-based; settings: for activity at 0.004 µM / activity at 0.012 µM / activity at 0.037 µM / activity at 0.11 µM / activity at 0.33 µM / activity at 1 µM / activity at 3 µM: Mus musculus, Osteoblast; for activity at 0.004 µM: 0.004 μM Compound 1; for activity at 0.012 µM: 0.012 μM Compound 1; for activity at 0.037 µM: 0.037 μM Compound 1; for activity at 0.11 µM: 0.11 μM Compound 1; for activity at 0.33 µM: 0.33 μM Compound 1; for activity at 1 µM: 1.0 μM Compound 1; for activity at 3 µM: 3.0 μM Compound 1
# Experimental: The effects on osteoblasts were studied using KS483 mouse osteoprogenitor cells that can be induced to differentiate into bone-forming osteoblasts. […] In the osteoblast differentiation assay, the cells were cultured for 8 days, after which the formed mature osteoblasts were quantitated by measuring the amount of intracellular alkaline phosphatase (ALP) activity. […] A culture system was established that can be used as an in vitro model for studying the effects of anabolic and estrogen-like compounds on osteoblast differentiation and activity. In this culture system mouse KS483 cells first proliferate and then differentiate into osteoblasts capable of forming mineralized bone nodules in the presence of ascorbic acid and ß-glycerophosphate (Fagerlund et al. 2009). The test and reference compounds are added into the cell cultures concomitantly with the medium change, and their effects on the differentiation and activity of osteoblasts are determined. Cellular ALP, a marker of osteoblast differentiation, is determined from the cell lysates as described earlier (Lowry et al. 1954). Secreted PINP, a marker of organic bone matrix formation, is determined from the culture medium using a commercially available method (Rat/Mouse PINP EIA, IDS Ltd, Boldon, UK). Calcium deposition, an index of inorganic bone matrix formation, is measured using a commercially available calcium assay (Roche Diagnostics). Mouse KS483 cells were cultured in T-75 tissue culture flasks in aMEM supplemented with 10% charcoal-stripped fetal bovine serum until 80-90% confluence. The cells were incubated in a CO2 incubator in humidified atmosphere of 95% air and 5% carbon dioxide at 37° C. After reaching 80-90% confluence, subcultures were prepared. Cells were removed from the flasks with trypsin treatment and counted. For induction of the maturation of osteoblasts and bone formation, the immature osteoblastic cells were plated in type I collagen-coated 96-well plates. The cells were cultured for 13 days with a supplement of ascorbic acid (50 μg/ml) and ß-glycerophosphate (5 mM), and half of the media was changed every 3-4 days. The test compound and control substance (E2) were added in the beginning of the culture period and when the medium was changed. Secreted PINP was measured from the culture medium at day 11 as a marker of organic bone matrix formation. The cultures were stopped at day 13 by removing the culture media from the wells and adding hydrochloric acid. Calcium deposited into the formed bone matrix was quantitated by using VICTOR2™ Multilabel Counter (PerkinElmer, Waltham, Mass., USA).
# [2] = 0.004, 0.012, 0.037 and 0.11 μM
# [3] = 264 h, read-out: PINP Activity at Day 11, Percent Activity (%) Compared to BL
# [4] = 312 h, read-out: Calcium Deposition at Day 13, Percent Activity (%) Compared to BL
smiles,measurement,setting,value
"COc1cc2nccc(Oc3ccc(NC(=O)C4(C(=O)Nc5ccc(F)cc5)CC4)cc3)c2cc1OC [Compound 1, N-(4-{[6,7-bis(methyloxy)quinolin-4-yl]oxy}phenyl)-N′-(4-fluorophenyl)cyclopropane-1,1-dicarboxamide]",activity at 0.004 µM,"human osteoclasts; Homo sapiens, Osteoclast, 0.004 μM Compound 1, read-out: CTX at Day 10 and TRACP 5b Activity at Day 7 (CTX/TRACP 5b), Percent Activity (%) Compared to BL",84%
same,activity at 0.012 µM,"human osteoclasts; Homo sapiens, Osteoclast, 0.012 μM Compound 1, read-out: CTX at Day 10 and TRACP 5b Activity at Day 7 (CTX/TRACP 5b), Percent Activity (%) Compared to BL",104%
same,activity at 0.037 µM,"human osteoclasts; Homo sapiens, Osteoclast, 0.037 μM Compound 1, read-out: CTX at Day 10 and TRACP 5b Activity at Day 7 (CTX/TRACP 5b), Percent Activity (%) Compared to BL",115%
same,activity at 0.11 µM,"human osteoclasts; Homo sapiens, Osteoclast, 0.11 μM Compound 1, read-out: CTX at Day 10 and TRACP 5b Activity at Day 7 (CTX/TRACP 5b), Percent Activity (%) Compared to BL",107%
same,activity at 0.33 µM,"human osteoclasts; Homo sapiens, Osteoclast, 0.33 μM Compound 1, read-out: CTX at Day 10 and TRACP 5b Activity at Day 7 (CTX/TRACP 5b), Percent Activity (%) Compared to BL",102%
same,activity at 1 µM,"human osteoclasts; Homo sapiens, Osteoclast, 1.0 μM Compound 1, read-out: CTX at Day 10 and TRACP 5b Activity at Day 7 (CTX/TRACP 5b), Percent Activity (%) Compared to BL",111%
same,activity at 3 µM,"human osteoclasts; Homo sapiens, Osteoclast, 3.0 μM Compound 1, read-out: CTX at Day 10 and TRACP 5b Activity at Day 7 (CTX/TRACP 5b), Percent Activity (%) Compared to BL",85%
same,effect on osteoclast resorption activity,human osteoclasts; tested concentrations 0.004-3.0 μM,no effects
same,bone forming activity of osteoblasts,[1]; [2],dose-dependent stimulation
same,calcium values,[1]; [2],increased
same,PINP values,[1]; 0.012 and 0.037 μM,increased
same,PINP values,"[1]; 0.33, 1.0 and 3.0 μM",decreased
same,bone forming activity of osteoblasts,"[1]; 0.33, 1.0 and 3.0 μM",inhibitory effects
same,calcium values,"[1]; 0.33, 1.0 and 3.0 μM",decreased
same,activity at 0.004 µM,[1]; [3],117%
same,activity at 0.012 µM,[1]; [3],122%
same,activity at 0.037 µM,[1]; [3],135%
same,activity at 0.11 µM,[1]; [3],101%
same,activity at 0.33 µM,[1]; [3],73%
same,activity at 1 µM,[1]; [3],42%
same,activity at 3 µM,[1]; [3],21%
same,activity at 0.004 µM,[1]; [4],145%
same,activity at 0.012 µM,[1]; [4],167%
same,activity at 0.037 µM,[1]; [4],180%
same,activity at 0.11 µM,[1]; [4],144%
same,activity at 0.33 µM,[1]; [4],59%
same,activity at 1 µM,[1]; [4],12%
same,activity at 3 µM,[1]; [4],4%
